# Measurements published in publication PMC5053523, “In Vitro Antibacterial Activity of Rhodanine Derivatives against Pathogenic Clinical Isolates” (PLoS ONE, 2016).
# Like-named read-outs stand apart in the source and are kept apart here.
# Experiments:
# Format in all cases: cell-based
# [1] = test system: vancomycin resistant enterococci (VRE); assay: Broth microdilution MIC50/MIC90, VRE panel; conditions: Enterococcus, 10 VRE strains; for MIC90: VRE, read-out: MIC 90; for MIC50: read-out: MIC 50
# [2] = test system: methicillin-resistant Staphylococcus aureus (MRSA); assay: Broth microdilution MIC/MBC, MRSA
# [3] = test system: Vancomycin Resistant Staphylococcus aureus (VRSA); assay: Broth microdilution MIC/MBC, VRSA; conditions: for MBC / MIC: VRSA
# [4] = test system: Bacillus anthracis; assay: microbe, parasite or virus in culture
# [5] = test system: B. licheniformis; assay: Broth microdilution MIC/MBC, B. licheniformis; conditions: Bacillus licheniformis; for MBC: read-out: MBC; for MIC: read-out: MIC
# [6] = test system: Clostridium difficile; assay: MIC against Clostridium difficile, anaerobic broth dilution; conditions: Clostridioides difficile
# Procedure: Clinical isolates of C. difficile were cultured on anaerobic blood agar and incubated anaerobically using container gas pack system at 37° C for 48 hours. The colonies were then suspended in pre-reduced phosphate buffered saline (PBS) and adjusted to 0.5 McFarland standard then diluted 1:300 in pre-reduced Supplemented Brain Heart Infusion broth. The bacterial suspension was then transferred to each well of 96-well plates, the drugs were added to the first row of wells in the required concentrations and serially diluted along the plates. The plates were incubated again anaerobically using container gas pack system at 37° C for 48 hours. The (MIC) recorded was the lowest concentration of the drug showing no visible growth of the bacteria.
# [7] = test system: Mycobacterium smegmatis; assay: Broth microdilution MIC/MBC, Mycobacterium smegmatis; conditions: Mycolicibacterium smegmatis, ATCC14468, M. Smegmatis ATCC 14468; for MBC: read-out: MBC; for MIC: read-out: MIC
# [8] = test system: Candida albicans; assay: MIC against Candida albicans; conditions: table prints none, read-out: MIC
# [9] = test system: Acinetobacter baumannii; assay: MIC with/without sub-MIC colistin, Acinetobacter baumannii
# Procedure: (§1) The MIC of the rhodanines and control antibiotics, in the presence of a sub-inhibitory concentration of colistin or polymixin B nonapeptide (PMBN), against Gram-negative bacteria was evaluated as described before. The antibacterial activity of the rhodanines was further investigated against E. coli SM1411Δ acrAB, a strain that is deficient in the multidrug-resistant AcrAB efflux pump, as described before.
# [10] = test system: Klebsiella pneumoniae; assay: MIC with/without PMBN, Klebsiella pneumoniae
# Procedure: as §1
# [11] = NCIB9375, B. licheniformis Gibson 46 (NCIB 9375) NR-2494
# [12] = NRS712, B. licheniformis NRS 712 NR-2499
# [13] = Acinetobacter baumannii ATCC BAA747, colistin (+) […], read-out: MIC
# [14] = Acinetobacter baumannii ATCC BAA19606, colistin (+) […], read-out: MIC
# [15] = Acinetobacter baumannii, ATCCBAA747
# [16] = Acinetobacter baumannii, ATCCBAA19606
# [17] = Klebsiella pneumoniae ATCC BAA 1706, PMBN (+) 4 μg/mL
# [18] = Klebsiella pneumoniae ATCC BAA 2146, PMBN (+) 4 μg/mL
smiles,measurement,setting,value
O=C(O)[C@@H](Cc1ccccc1)N1C(=O)/C(=C/c2cccc(Cc3ccccc3)c2)SC1=S [Rh 7],MIC90,[1],16 µM
same,MIC50,[1],16 µM
same,MIC50,[2]; 11 MRSA strains,8 µM
same,MIC90,[2]; 11 MRSA strains,16 µM
same,MBC,[2]; MRSA NRS 1,16 µM
same,MIC,[2]; MRSA NRS 1,8 µM
same,MBC,[2]; MRSA NRS 19,8 µM
same,MIC,[2]; MRSA NRS 19,8 µM
same,MBC,[2]; MRSA NRS 37,16 µM
same,MIC,[2]; MRSA NRS 37,16 µM
same,MBC,[2]; MRSA NRS 107,16 µM
same,MIC,[2]; MRSA NRS 107,16 µM
same,MBC,[2]; MRSA NRS 119,8 µM
same,MIC,[2]; MRSA NRS 119,8 µM
same,MBC,[2]; MRSA NRS 383,16 µM
same,MIC,[2]; MRSA NRS 383,16 µM
same,MBC,[2]; MRSA NRS 384,64 µM
same,MIC,[2]; MRSA NRS 384,8 µM
same,MBC,[2]; MRSA NRS 385,16 µM
same,MIC,[2]; MRSA NRS 385,8 µM
same,MBC,[2]; MRSA NRS 386,> 64 µM
same,MIC,[2]; MRSA NRS 386,8 µM
same,MBC,[2]; MRSA NRS 387,8 µM
same,MIC,[2]; MRSA NRS 387,8 µM
same,MIC50,"[3]; 15 VRSA strains, read-out: MIC 50",8 µM
same,MIC90,"[3]; 15 VRSA strains, read-out: MIC 90",16 µM
same,MBC,"[3]; VRSA 1, read-out: MBC",32 µM
same,MIC,"[3]; VRSA 1, read-out: MIC",16 µM
same,MBC,"[3]; VRSA 2, read-out: MBC",8 µM
same,MIC,"[3]; VRSA 2, read-out: MIC",8 µM
same,MBC,"[3]; VRSA 3a, read-out: MBC",8 µM
same,MIC,"[3]; VRSA 3a, read-out: MIC",8 µM
same,MBC,"[3]; VRSA 3b, read-out: MBC",32 µM
same,MIC,"[3]; VRSA 3b, read-out: MIC",8 µM
same,MBC,"[3]; VRSA 4, read-out: MBC",16 µM
same,MIC,"[3]; VRSA 4, read-out: MIC",8 µM
same,MBC,"[3]; VRSA 5, read-out: MBC",8 µM
same,MIC,"[3]; VRSA 5, read-out: MIC",8 µM
same,MBC,"[3]; VRSA 6, read-out: MBC",16 µM
same,MIC,"[3]; VRSA 6, read-out: MIC",8 µM
same,MBC,"[3]; VRSA 7, read-out: MBC",16 µM
same,MIC,"[3]; VRSA 7, read-out: MIC",8 µM
same,MBC,"[3]; VRSA 8, read-out: MBC",16 µM
same,MIC,"[3]; VRSA 8, read-out: MIC",8 µM
same,MBC,"[3]; VRSA 9, read-out: MBC",16 µM
same,MIC,"[3]; VRSA 9, read-out: MIC",16 µM
same,MBC,"[3]; VRSA 10, read-out: MBC",16 µM
same,MIC,"[3]; VRSA 10, read-out: MIC",8 µM
same,MBC,"[3]; VRSA 11a, read-out: MBC",16 µM
same,MIC,"[3]; VRSA 11a, read-out: MIC",8 µM
same,MBC,"[3]; VRSA 11b, read-out: MBC",32 µM
same,MIC,"[3]; VRSA 11b, read-out: MIC",8 µM
same,MBC,"[3]; VRSA 12, read-out: MBC",16 µM
same,MIC,"[3]; VRSA 12, read-out: MIC",8 µM
same,MBC,"[3]; VRSA 13, read-out: MBC",32 µM
same,MIC,"[3]; VRSA 13, read-out: MIC",8 µM
same,MBC,[4]; Bacillus anthracis AMES35,2 µM
same,MIC,[4]; Bacillus anthracis AMES35,2 µM
same,MBC,[4]; Bacillus anthracis UM23,2 µM
same,MIC,[4]; Bacillus anthracis UM23,2 µM
same,MBC,[4]; Bacillus anthracis Weybridge,2 µM
same,MIC,[4]; Bacillus anthracis Weybridge,2 µM
same,MBC,[5]; [11],8 µM
same,MIC,[5]; [11],8 µM
same,MBC,[5]; [12],8 µM
same,MIC,[5]; [12],8 µM
same,MIC,[6]; C. difficile HM-88,4 µM
same,MIC,[6]; C. difficile HM-745,1 µM
same,MIC,[6]; C. difficile HM-746,2 µM
same,MIC,[6]; C. difficile Isolate-1 NR-13427,4 µM
same,MIC,[6]; C. difficile Toxigenic Strain P8 NR-32888,4 µM
same,MBC,[7],16 µM
same,MIC,[7],16 µM
same,MIC,"[8]; ATCC10231, C. albicans ATCC 10231, unit from abstract",> 64 µM
same,MIC,"[8]; C. albicans NR 29434, unit from abstract",> 64 µM
same,MIC,"[8]; C. albicans NR 29435, unit from abstract",> 64 µM
same,MIC,"[8]; C. albicans NR29437, unit from abstract",> 64 µM
same,MIC,"[8]; C. albicans NR29438, unit from abstract",> 64 µM
same,MIC,"[8]; C. albicans NR 29446, unit from abstract",64 µM
same,MIC,"[8]; C. albicans NR 29448, unit from abstract",> 64 µM
same,MIC,"[8]; C. albicans NR 29449, unit from abstract",> 64 µM
same,MIC,"[8]; C. albicans NR 29453, unit from abstract",> 64 µM
same,MIC,"[8]; C. albicans NR 294436, unit from abstract",> 64 µM
same,MIC,[9]; [13],>64 µM
same,MIC,[9]; [14],>64 µM
same,MIC,[9]; [15],> 128 µM
same,MIC,[9]; [16],> 128 µM
same,MIC,[10]; [17],>64 µM
same,MIC,[10]; [18],>64 µM
same,MIC,"[10]; Klebsiella pneumoniae, BAA1706",> 128 µM
same,MIC,"[10]; Klebsiella pneumoniae, BAA2146",> 128 µM
"CC(=O)NC[C@H]1CN(c2ccc(N3CCOCC3)c(F)c2)C(=O)O1 [Linezolid, linezolid, reference compound]",MIC90,[1],2 µM
same,MIC50,[1],2 µM
same,MBC,[5]; [11],2 µM
same,MIC,[5]; [11],1 µM
same,MBC,[5]; [12],4 µM
same,MIC,[5]; [12],2 µM
same,MBC,[7],8 µM
same,MIC,[7],4 µM
same,MIC,[9]; [13],>64 µM
same,MIC,[9]; [14],>64 µM
same,MIC,[9]; [15],> 128 µM
same,MIC,[9]; [16],> 128 µM
same,MIC,[10]; [17],>64 µM
same,MIC,[10]; [18],>64 µM
same,MIC,"[10]; Klebsiella pneumoniae, BAA1706",> 128 µM
same,MIC,"[10]; Klebsiella pneumoniae, BAA2146",> 128 µM
